Measurements from patent publication EP0432974A1, “Cyclic renin inhibitors” (MERCK & CO. INC., priority 1989, dated 1991).
Square brackets hold non-standard residues; d marks the D form. Peptide text beside a SMILES is read from it. * marks the point of attachment. Sta = CC(C)C[C@H](N)[C@@H](O)CC(=O)O; Isovaleryl = CC(C)CC(=O)*

Experiments:
[1] = tested on: human plasma renin; assay: human plasma renin IC50 determination at pH 7.4; assay type: biochemical
Protocol: The following method was used for in vitro evaluation of the renin inhibitors of Formula I : The human plasma renin IC50 values for inhibitors of Formula I were determined at pH 7.4 following the procedure described in J. Boger, L.S. Payne, D.S. Perlow, N.S. Lohr, M. Poe, E.H. Blaine, E.H. Ulm, T.W. Schorn, B.I. Lamont, T.Y. Lin, M. Kawai, D.H. Rich and D.F. Veber, J. Med. Chem., 28,1779 (1985).

[2] = tested on: sodium-deficient Rhesus monkeys; assay: intravenous evaluation of renin inhibitors in conscious sodium-deficient Rhesus monkeys (blood pressure lowering); assay type: in vivo; conditions: i.v. bolus
From the text: The following methods were used for in vivo evaluation of the renin inhibitors of Formula I : Intravenous evaluation of renin inhibitors in concious sodium-deficient Rhesus monkeys : Rhesus monkeys, male and female, weighing 2.6-4.5 Kg, were surgically prepared with chronic arterial and venous catheters and vascular access ports for direct monitoring of mean arterial pressure (MAP) and heart rate (HR). The animals were maintained on a low sodium diet (1.2 mmol Nalday) plus friut for a week, and administered LASIX (furosemide) at 2.5 mg/Kg, intramuscularly the evening prior to the experiment The animals had been trained to sit quietly in the chairs with water ad libium for the duration of the experiment. The inhibitors were administered by bolus injection using 0.5% acetic acid-5% dextrose in water as the vehicle (0.4 ml/Kg), and MAP and HR were measured. Blood samples were withdrawn at different time intervals beginning at the nadir of hypotensive response. PRAwas determined as described above. […] A projected ED50 dose for each inhibitor was calculated using the following furmula : ED50 (Test Inhibitor, umoles/Kg) = ED50 (SCRIP) X [ICso (Test Inhibitor)/ICso (SCRIP)], where the IC50 values were determined against human plasma renin. […] Percent inhibition of monkey PRA, changes in MAP and HR were calculated and plotted against time. […]

IC50 [1]: 3.7 nM
Compound: CC(C)CC(=O)N[C@@H](Cc1c[nH]cn1)C(=O)N1CCC[C@H]1C(=O)N[C@@H](Cc1ccccc1)C(=O)N[C@@H](Cc1c[nH]cn1)C(=O)N[C@@H](CC(C)C)[C@@H](O)CC(=O)N[C@@H](CC(C)C)C(=O)N[C@@H](Cc1ccccc1)C(N)=O [SCRIP, Iva-His-Pro-Phe-His-Sta-Leu-Phe-NH2] (Isovaleryl-HPFH[Sta]LF-NH2)
ED50 (i.v. dose required to lower blood pressure by 50% of the maximal response) [2]: 0.039 µmol/kg
